Measured values reported in the NIST ThermoML archive (doi:10.1016/j.jct.2012.01.008).
± gives the expanded uncertainty stated by the source.

Assay: xn = mol fraction of the nth substance listed
Details: Liquid, Vibrating tube method

CCC[N+]1(C)CCCCC1.O=S(=O)([N-]S(=O)(=O)C(F)(F)F)C(F)(F)F + CC(=O)c1ccccc1
mass density [kg/m3]
Details	100 kPa	10000 kPa	15000 kPa	20000 kPa	25000 kPa	30000 kPa	35000 kPa	40000 kPa	45000 kPa	50000 kPa
298.15 K, x2 = 0.1024	1393.3 ± 0.6	1399.9 ± 0.7	1402.9 ± 0.8	1406 ± 0.9	1408.8 ± 1	1411.6 ± 1.1	1414.3 ± 1.2	1417.1 ± 1.2	1419.8 ± 1.3	1422.4 ± 1.4
298.15 K, x2 = 0.2007	1376 ± 0.6	1382.5 ± 0.7	1385.4 ± 0.8	1388.5 ± 0.9	1391.3 ± 0.9	1394.1 ± 1	1396.8 ± 1.1	1399.5 ± 1.2	1402.2 ± 1.3	1404.8 ± 1.4
298.15 K, x2 = 0.3001	1355.5 ± 0.5	1361.8 ± 0.7	1364.8 ± 0.8	1367.9 ± 0.8	1370.7 ± 0.9	1373.5 ± 1	1376.2 ± 1.1	1379 ± 1.1	1381.7 ± 1.2	1384.3 ± 1.3
298.15 K, x2 = 0.4001	1331.8 ± 0.5	1338 ± 0.7	1341 ± 0.7	1344.1 ± 0.8	1346.9 ± 0.9	1349.7 ± 0.9	1352.4 ± 1	1355.1 ± 1.1	1357.8 ± 1.2	1360.4 ± 1.2
298.15 K, x2 = 0.5008	1303.8 ± 0.5	1309.9 ± 0.6	1312.8 ± 0.7	1315.8 ± 0.7	1318.5 ± 0.8	1321.3 ± 0.9	1324 ± 0.9	1326.6 ± 1	1329.3 ± 1.1	1331.8 ± 1.2
298.15 K, x2 = 0.6001	1270.5 ± 0.5	1276.6 ± 0.6	1279.5 ± 0.6	1282.5 ± 0.7	1285.2 ± 0.8	1287.9 ± 0.8	1290.5 ± 0.9	1293.2 ± 0.9	1295.7 ± 1	1298.2 ± 1.1
298.15 K, x2 = 0.7003	1229.4 ± 0.5	1235.5 ± 0.5	1238.3 ± 0.6	1241.2 ± 0.6	1243.9 ± 0.7	1246.5 ± 0.7	1249.1 ± 0.8	1251.7 ± 0.8	1254.2 ± 0.9	1256.7 ± 0.9
298.15 K, x2 = 0.7999	1178 ± 0.4	1184 ± 0.5	1186.8 ± 0.5	1189.7 ± 0.6	1192.3 ± 0.6	1194.9 ± 0.6	1197.5 ± 0.7	1200.1 ± 0.7	1202.6 ± 0.8	1205 ± 0.8
298.15 K, x2 = 0.8998	1111.5 ± 0.4	1117.3 ± 0.4	1120 ± 0.4	1122.7 ± 0.5	1125.2 ± 0.5	1127.8 ± 0.5	1130.4 ± 0.5	1133 ± 0.6	1135.4 ± 0.6	1137.8 ± 0.6
318.15 K, x2 = 0.1024	1376.7 ± 0.6	1383.4 ± 0.7	1386.8 ± 0.8	1389.8 ± 0.9	1392.8 ± 1	1395.8 ± 1	1398.8 ± 1.1	1401.6 ± 1.2	1404.5 ± 1.3	1407.1 ± 1.4
318.15 K, x2 = 0.2007	1359 ± 0.5	1365.7 ± 0.7	1369.1 ± 0.8	1372.1 ± 0.8	1375.1 ± 0.9	1378.1 ± 1	1381.1 ± 1.1	1383.9 ± 1.2	1386.7 ± 1.2	1389.3 ± 1.3
318.15 K, x2 = 0.3001	1338.4 ± 0.5	1345.1 ± 0.7	1348.5 ± 0.7	1351.5 ± 0.8	1354.5 ± 0.9	1357.5 ± 1	1360.5 ± 1	1363.3 ± 1.1	1366.1 ± 1.2	1368.7 ± 1.3
318.15 K, x2 = 0.4001	1314.6 ± 0.5	1321.3 ± 0.6	1324.7 ± 0.7	1327.7 ± 0.8	1330.7 ± 0.8	1333.7 ± 0.9	1336.5 ± 1	1339.3 ± 1	1342.1 ± 1.1	1344.8 ± 1.2
318.15 K, x2 = 0.5008	1286.6 ± 0.5	1293.1 ± 0.6	1296.5 ± 0.7	1299.5 ± 0.7	1302.4 ± 0.8	1305.4 ± 0.8	1308.2 ± 0.9	1310.9 ± 1	1313.7 ± 1	1316.3 ± 1.1
318.15 K, x2 = 0.6001	1253.2 ± 0.5	1259.8 ± 0.6	1263.1 ± 0.6	1266.1 ± 0.7	1269 ± 0.7	1271.9 ± 0.8	1274.8 ± 0.8	1277.4 ± 0.9	1280.2 ± 1	1282.8 ± 1
318.15 K, x2 = 0.7003	1212 ± 0.4	1218.5 ± 0.5	1221.8 ± 0.6	1224.7 ± 0.6	1227.7 ± 0.7	1230.6 ± 0.7	1233.4 ± 0.8	1236 ± 0.8	1238.7 ± 0.9	1241.3 ± 0.9
318.15 K, x2 = 0.7999	1160.6 ± 0.4	1167.1 ± 0.5	1170.2 ± 0.5	1173.1 ± 0.5	1176 ± 0.6	1178.8 ± 0.6	1181.7 ± 0.6	1184.2 ± 0.7	1186.9 ± 0.7	1189.5 ± 0.8
318.15 K, x2 = 0.8998	1093.9 ± 0.4	1100.3 ± 0.4	1103.4 ± 0.4	1106.3 ± 0.4	1109.2 ± 0.5	1112 ± 0.5	1114.9 ± 0.5	1117.4 ± 0.5	1120.1 ± 0.6	1122.6 ± 0.6
348.15 K, x2 = 0.1024	1350.8 ± 0.5	1357.9 ± 0.7	1361.5 ± 0.8	1365.1 ± 0.8	1368.5 ± 0.9	1371.7 ± 1	1374.9 ± 1.1	1377.9 ± 1.1	1381 ± 1.2	1383.8 ± 1.3
348.15 K, x2 = 0.2007	1333 ± 0.5	1340.3 ± 0.7	1344 ± 0.7	1347.5 ± 0.8	1350.9 ± 0.9	1354.1 ± 0.9	1357.4 ± 1	1360.4 ± 1.1	1363.4 ± 1.2	1366.2 ± 1.3
348.15 K, x2 = 0.3001	1312.4 ± 0.5	1319.7 ± 0.6	1323.4 ± 0.7	1327 ± 0.8	1330.4 ± 0.8	1333.7 ± 0.9	1336.8 ± 1	1339.9 ± 1.1	1342.8 ± 1.1	1345.6 ± 1.2
348.15 K, x2 = 0.4001	1288.5 ± 0.5	1295.8 ± 0.6	1299.5 ± 0.7	1303 ± 0.7	1306.4 ± 0.8	1309.6 ± 0.9	1312.8 ± 0.9	1315.8 ± 1	1318.8 ± 1.1	1321.6 ± 1.1
348.15 K, x2 = 0.5008	1260.2 ± 0.5	1267.6 ± 0.6	1271.2 ± 0.6	1274.6 ± 0.7	1277.9 ± 0.7	1281.2 ± 0.8	1284.3 ± 0.9	1287.3 ± 0.9	1290.3 ± 1	1293.1 ± 1
348.15 K, x2 = 0.6001	1226.6 ± 0.5	1234.1 ± 0.5	1237.7 ± 0.6	1241.1 ± 0.6	1244.4 ± 0.7	1247.7 ± 0.7	1250.8 ± 0.8	1253.8 ± 0.8	1256.8 ± 0.9	1259.6 ± 1
348.15 K, x2 = 0.7003	1185.5 ± 0.4	1193 ± 0.5	1196.6 ± 0.5	1199.9 ± 0.6	1203.2 ± 0.6	1206.5 ± 0.7	1209.6 ± 0.7	1212.6 ± 0.7	1215.6 ± 0.8	1218.4 ± 0.8
348.15 K, x2 = 0.7999	1134.2 ± 0.4	1141.7 ± 0.4	1145.2 ± 0.5	1148.6 ± 0.5	1151.8 ± 0.5	1155.1 ± 0.6	1158.2 ± 0.6	1161.2 ± 0.6	1164.2 ± 0.7	1167 ± 0.7
348.15 K, x2 = 0.8998	1067.9 ± 0.4	1075.4 ± 0.4	1078.9 ± 0.4	1082.1 ± 0.4	1085.4 ± 0.4	1088.6 ± 0.5	1091.7 ± 0.5	1094.7 ± 0.5	1097.7 ± 0.5	1100.4 ± 0.5
